Key:
mouse spleen cells = test: Action on the blastogenesis of mouse spleen cells (ConA-stimulated, MTT reduction method); type: cell-based, BALB/c mouse; details: Mus musculus, 72 h, ConA 1 µg/ml, 3 days, rate against no test compound = one
Experimental: Serial two-fold dilutions (100 µl/well) with 10% FBS of test compounds which are dissolved in a dimethyl sulfoxide (DMSO) solution are obtained on a 96-well microplate, and used as test samples.
The spleen of a BALB/c mouse is aseptically isolated, and gently ground on a wire mesh with dropwise addition of sterilzed saline. The filtrate is passed through a nylon mesh (Becton Dickinson; pore size: 70 µm), thereby preparing a unicellular suspension.
(§1) After being washed twice with sterilized saline, the spleen cells are suspended in RPMI1460 containing 10% FCS and containing 1 µg/ml of concanavalin A (abbreviated as ConA: Sigma, U.S.) as well as an antibiotic (Sigma: Antibiotic Antimycotic), and dispensed into a 96-well microplate, in which 100 µl each of diluted test samples are previously dispensed, in amounts of 3 × 10^5 cells/100 µl/well.
Thereafter, culturing is carried out under 5% carbon dioxide gas at 37°C for 3 days, and then the blastogenesis of lymphocytes is measured by an MTT reduction method [Mosmann T, Journal of Immunological Method, vol. 65, p. 55, 1983]. The blastogenesis rate can be quantitated as a rate against the blastogenesis of those not having test compounds added thereto, which is defined as one. The presence of an immunoactivating action can be determined if the blastogenesis rate exceeds one.
Serial two-fold dilutions (100 µl/well) with RPMI1640 (Nikken Biomedical Laboratory) containing 10% FBS (bovine fetal serum: Dainippon Pharmaceutical Co., Ltd.) of test compounds which were dissoloved in a dimethylsulfoxide (DMSO) solution were obtained on a 96-well microplate, and used as test samples.
The spleen of a BALB/c mouse (a 6 week-old female) was aseptically isolated, and gently ground on a wire mesh with dropwise addition of sterilzed saline. The filtrate was passed through a nylon mesh (Becton Dickinson; pore size: 70 µm), thereby preparing a unicellular suspension.
as §1, with “cells were” for “cells are”, “samples had” for “samples are”, “previously been” for “previously”, “of 3×10^5” for “of 3 × 10^5”
Thereafter, culturing was carried out under 5% carbon dioxide gas at 37°C for 3 days, and then the blastogenesis of lymphocytes was measured by an MTT reduction method [Mosmann T, Journal of Immunological Method, vol. 65, p. 55, 1983]. The results are shown in [Table 4].

mouse bone marrow cells = test: Metabolism promoting action on mouse bone marrow cells (mitochondrial metabolism activity, MTT reduction method); type: cell-based, BALB/c mouse; details: Mus musculus, Bone marrow cell, 120 h, 5 days, magnitude of metabolism, no test compound = one; for activity at 0.39 µg/mL: Test compound concentration 0.39 µg/ml; for activity at 0.78 µg/mL: Test compound concentration 0.78 µg/ml; for activity at 1.56 µg/mL: Test compound concentration 1.56 µg/ml; for activity at 3.13 µg/mL: Test compound concentration 3.13 µg/ml; for activity at 6.25 µg/mL: Test compound concentration 6.25 µg/ml; for activity at 12.5 µg/mL: Test compound concentration 12.5 µg/ml
Source text: The presence of an immunoactivating action can be determined if the magnitude of metabolism exceeds one, where the cellular metabolism of cells not having test compounds added thereto is defined as one.

Row | Compound | activity at 0.1 µg/mL (mouse spleen cells; concentration of additions in medium 0.1 μg/ml) [%] | activity at 0.2 µg/mL (mouse spleen cells; concentration of additions in medium 0.2 μg/ml) [%] | activity at 0.39 µg/mL (mouse spleen cells; concentration of additions in medium 0.39 μg/ml) [%] | activity at 0.78 µg/mL (mouse spleen cells; concentration of additions in medium 0.78 μg/ml) [%] | activity at 1.56 µg/mL (mouse spleen cells; concentration of additions in medium 1.56 μg/ml) [%] | activity at 3.13 µg/mL (mouse spleen cells; concentration of additions in medium 3.13 μg/ml) [%] | activity at 6.25 µg/mL (mouse spleen cells; concentration of additions in medium 6.25 μg/ml) [%] | activity at 0.39 µg/mL (mouse bone marrow cells) [%] | activity at 0.78 µg/mL (mouse bone marrow cells) [%] | activity at 1.56 µg/mL (mouse bone marrow cells) [%] | activity at 3.13 µg/mL (mouse bone marrow cells) [%] | activity at 6.25 µg/mL (mouse bone marrow cells) [%] | activity at 12.5 µg/mL (mouse bone marrow cells) [%]
1 | COc1cc2c(c(OC)c1CC=C(C)C)CC(c1ccc(O)c(CC=C(C)C)c1O)CO2 (stereo not shown) [A-2, 4-[3,4-dihydro-5,7-dimethoxy-6-(3-methyl-2-butenyl)-2H-1-benzopyran-3-yl]-2-(3-methyl-2-butenyl)-1,3-benzenediol] | 117 | 112 | 137 | 184 | 234 | 121 | 26 |  |  |  |  |  | 
2 | CCCCCCOc1cc2c(c(OC)c1CCC(C)C)CC(c1ccc(O)c(CCC(C)C)c1OCCCCCC)CO2 (stereo not shown) [A-14] |  |  |  |  |  |  |  | 134 | 149 | 166 | 184 | 199 | 209
3 | CCCCCCCCCOc1ccc(C2COc3cc(O)c(CCC(C)C)c(OC)c3C2)c(OCCCCCCCCC)c1CCC(C)C (stereo not shown) [A-17] |  |  |  |  |  |  |  | 116 | 117 | 126 | 164 | 177 | 156
4 | CCCCCCCCCOc1cc2c(c(OC)c1CCC(C)C)CC(c1ccc(O)c(CCC(C)C)c1OCCCCCCCCC)CO2 (stereo not shown) [A-18] |  |  |  |  |  |  |  | 103 | 102 | 109 | 115 | 119 | 114
5 | COc1c2c(cc(OC(C)C)c1CCC(C)C)OCC(c1ccc(O)c(CCC(C)C)c1O)C2 (stereo not shown) [A-19] |  |  |  |  |  |  |  |  |  | 120 | 128 | 126 | 53
6 | COc1c(CCC(C)C)c(O)cc2c1CC(c1ccc(OC(C)C)c(CCC(C)C)c1OC(C)C)CO2 (stereo not shown) [A-20] |  |  |  |  |  |  |  |  |  | 135 | 134 | 116 | 94
7 | COc1c2c(cc(OC(C)C)c1CCC(C)C)OCC(c1ccc(O)c(CCC(C)C)c1OC(C)C)C2 (stereo not shown) [A-21] |  |  |  |  |  |  |  |  |  | 131 | 122 | 89 | 44
8 | COc1c(CCC(C)C)c(O)cc2c1CC(c1ccc(O)c(CCC(C)C)c1OC(C)C)CO2 (stereo not shown) [A-22] |  |  |  |  |  |  |  |  |  | 186 | 176 | 40 | 50
9 | COc1cc(OC)c2c(c1)OCC(c1ccc(OCc3ccccc3)cc1OCc1ccccc1)C2 (stereo not shown) [B-1] |  |  |  |  |  |  |  | 114 | 116 | 136 | 157 | 188 | 178
10 | COc1cc(OC)c2c(c1)OCC(c1ccc(O)cc1O)C2 (stereo not shown) [B-2] |  |  |  |  |  |  |  | 106 | 116 | 110 | 146 | 293 | 100
11 | COc1cc(OC)c2c(c1)OCC(c1ccc(OCC=C(C)C)cc1OCC=C(C)C)C2 (stereo not shown) [B-3] |  |  |  |  |  |  |  | 114 | 111 | 110 | 162 | 183 | 204
12 | COc1cc(OC)c2c(c1)OCC(c1ccc(O)c(CC=C(C)C)c1O)C2 (stereo not shown) [B-4] |  |  |  |  |  |  |  | 110 | 115 | 125 | 176 | 258 | 44
13 | COc1cc(OC)c2c(c1)OCC(c1ccc(O)cc1OCC=C(C)C)C2 (stereo not shown) [B-5] |  |  |  |  |  |  |  | 100 | 115 | 165 | 245 | 205 | 31
14 | COc1cc(OC)c2c(c1)OCC(c1ccc(O[Si](C)(C)C(C)(C)C)cc1O[Si](C)(C)C(C)(C)C)C2 (stereo not shown) [B-6] |  |  |  |  |  |  |  | 100 | 103 | 120 | 144 | 173 | 156
15 | COc1cc(O)c2c(c1)OCC(c1ccc(OCc3ccccc3)cc1OCc1ccccc1)C2 (stereo not shown) [B-7] |  |  |  |  |  |  |  | 99 | 100 | 125 | 141 | 132 | 67
16 | COc1ccc(C2COc3cc(OC)cc(OC)c3C2)c(OC)c1 (stereo not shown) [B-8] |  |  |  |  |  |  |  | 94 | 91 | 90 | 90 | 118 | 83
17 | COc1cc2c(c(OC)c1CC=C(C)C)CC(c1ccc(O)cc1O)CO2 (stereo not shown) [B-9] |  |  |  |  |  |  |  | 110 | 133 | 150 | 165 | 110 | 25
18 | COc1cc2c(c(OC)c1C=CC(C)C)CC(c1ccc(O)cc1O)CO2 (stereo not shown) [B-10] |  |  |  |  |  |  |  | 118 | 145 | 204 | 119 | 45 | 23
19 | COc1cc2c(c(OC)c1CCC(C)C)CC(c1ccc(O)cc1O)CO2 (stereo not shown) [B-11] |  |  |  |  |  |  |  | 102 | 129 | 125 | 139 | 88 | 32
20 | COc1cc2c(c(OC)c1CC=C(C)C)CC(c1ccc(O[Si](C)(C)C(C)(C)C)cc1O[Si](C)(C)C(C)(C)C)CO2 (stereo not shown) [B-12] |  |  |  |  |  |  |  |  |  | 122 | 122 | 129 | 136
21 | COc1cc2c(c(OC)c1CC=C(C)C)CC(c1ccc(OCc3ccccc3)cc1OCc1ccccc1)CO2 (stereo not shown) [B-13] |  |  |  |  |  |  |  |  |  | 121 | 145 | 152 | 162
